{"source": "paper PMC3269340", "about": "“Pharmacokinetics of memantine in rats and mice” (PLoS Currents, 2012)", "key": {"human OCT1": {"target": "T1, human OCT1 (Homo sapiens, UniProt O15245)", "T1 construct": "expressed in transfected cells; host or cells: CHO cells", "T1 sequence (O15245 1-554)": "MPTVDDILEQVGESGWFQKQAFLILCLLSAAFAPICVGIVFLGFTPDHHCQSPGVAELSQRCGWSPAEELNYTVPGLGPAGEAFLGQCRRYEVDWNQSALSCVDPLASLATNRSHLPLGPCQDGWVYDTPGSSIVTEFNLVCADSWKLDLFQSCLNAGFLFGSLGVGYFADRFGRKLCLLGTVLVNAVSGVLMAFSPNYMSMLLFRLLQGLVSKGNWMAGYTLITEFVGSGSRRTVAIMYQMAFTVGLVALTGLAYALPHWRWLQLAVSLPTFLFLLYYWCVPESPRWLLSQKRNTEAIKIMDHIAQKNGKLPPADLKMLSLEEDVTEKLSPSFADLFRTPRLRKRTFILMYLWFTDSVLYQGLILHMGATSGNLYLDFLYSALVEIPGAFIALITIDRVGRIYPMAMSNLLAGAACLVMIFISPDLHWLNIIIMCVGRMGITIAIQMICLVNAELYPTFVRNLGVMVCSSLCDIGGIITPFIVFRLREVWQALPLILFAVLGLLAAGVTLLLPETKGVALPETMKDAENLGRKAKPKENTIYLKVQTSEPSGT", "experiment": "Indirect uptake transporter assay, OCT1", "type": "in vitro ADME", "from_the_text": "To determine whether memantine is an inhibitor of the human OATP2B1 (OATP-B), OCT1, OCT2, OAT3, PEPT1, PEPT2 uptake transporters. The standard uptake transporter assay is an indirect, inhibitory-type screening assay, performed with cold test article, which in this case was memantine. It provides information on any interaction (substrate or inhibitor) between selected uptake transporters and memantine that would affect the transport of the reporter compound. […] A radiolabeled reporter substrate is transported into the cells transfected with the selected human uptake transporter, and the inhibitory effect of memantine on the transport of this reporter substrate is measured. Values are presented on a relative scale; 100% defined as transport in the presence of the solvent and without memantine (no inhibition), and 0% defined as transport detected without transporter activity. IC50 is defined as the concentration required to inhibit the transport of the reporter substrate by 50%. […]\nAfter the experiment cells were rinsed with 2 x 100µl of Krebs-Henseleit buffer and lysed with 50 µl of 0.1M NaOH. ^3H-estrone-3-sulfate, ^14C-TEA, ^14C-metformin and ^3H-Gly-Sar transport was determined by total radioactivity by transferring an aliquot (35µl) from each well to a vial containing liquid scintillant for analysis."}, "[1]": {"experiment": "Stability in rat liver microsomes", "type": "in vitro ADME", "settings": "0.5 mg/mL pooled male microsomes, read-out: Intrinsic Clearance (Cl int) Liver Microsomes", "description": "Memantine (1 μM) was incubated in 0.5 mg/mL of pooled male rat, mouse, or human liver microsomes (obtained commercially), in 0.1 M phosphate buffer at 37 °C. After pre-warming the mixture for 5 min, reactions were initiated by the addition of NADPH (1 mM). Aliquots (80 μL) were taken at 0, 5, 10, 20 and 40 min, and the reaction immediately terminated by adding into 80 μL of acetonitrile containing an analytical internal standard (IS). Samples were centrifuged and the supernatant fractions analyzed by LC-MS/MS with multiple reaction monitoring (MRM). All incubations were performed in duplicate. Testosterone was used as the positive control. The MRM area response ratio of the analyte over IS for Time=0(control) was set to 100%, the relative decrease in MRM area ratio intensity over time against that of the control (percent parent decrease) was used to determine the half-life (t1/2) of memantine in the incubation. Half-life values were calculated from the relationship:\nt1/2 (min) = -0.693/λ, where λ is the slope of the Ln concentration vs time curve. The intrinsic clearance (Clint) was calculated as:\nClint = (0.693 x incubation volume (μL))/(t½ (min) x mg of microsomal protein)"}, "[2]": {"settings": "cited from earlier work"}, "[3]": {"test_system": "Alzheimer's disease patients", "settings": "cited from earlier work"}}, "note": "Several values for one entry are separate records, joined by “and”; a condition that tells them apart may be missing. Equal values may be shown once. Read-outs that look alike come from different tables or passages of the source.", "data": [{"compound": "CC12CC3CC(C)(C1)CC(N)(C3)C2", "note": "[memantine]", "values": [{"measurement": "Maximal Inhibition", "setting": "human OCT1; OCT1, up to 300 µM", "result": "~94", "unit": "%"}, {"measurement": "IC50", "setting": "human OCT1; OCT1, probe in Table 5: Gly-Sar (1.8 μM), methods and text: TEA", "result": "3.5 µM and 3.51 µM"}, {"measurement": "microsomal CLint at 1 μM", "setting": "[1]", "result": 50.4, "unit": "µL/min/mg"}, {"measurement": "Cmax", "setting": "[2]; human plasma/serum, 10 mg twice daily po, normal renal clearance", "result": 83.5, "unit": "ng/mL"}, {"measurement": "Cmax", "setting": "[2]; human plasma/serum, 10 mg twice daily, read-out: Cmax", "result": 470, "unit": "nM"}, {"measurement": "Cmax", "setting": "[2]; human, 10 mg BID po, read-out: Cmax", "result": 470, "unit": "nM"}, {"measurement": "C min", "setting": "[2]; human, 10 mg BID", "result": 300, "unit": "nM"}, {"measurement": "Cmax/Cmin ratio at steady state", "setting": "[2]; human, 10 mg BID", "result": 1.54}, {"measurement": "renal clearance as share of total systemic clearance", "setting": "[2]; human, acidic conditions", "result": 92, "unit": "%"}, {"measurement": "renal clearance as share of total systemic clearance", "setting": "[2]; human, alkaline conditions", "result": "60-67%"}, {"measurement": "Total plasma clearance (Clp)", "setting": "[2]; human, normal renal function", "result": 182, "unit": "mL/min"}, {"measurement": "renal clearance (Clr)", "setting": "[2]; human, normal renal function", "result": 164, "unit": "mL/min"}, {"measurement": "share of total plasma clearance accounted for by renal clearance", "setting": "[2]; human, normal renal function", "result": 90, "unit": "%"}, {"measurement": "Tmax", "setting": "[2]; human, po", "result": "4 to 6", "unit": "h"}, {"measurement": "dose eliminated as intact memantine in the urine", "setting": "[2]; human", "result": "75-90%"}, {"measurement": "elimination half-life", "setting": "[2]; human", "result": "60 to 80", "unit": "h"}, {"measurement": "volume of distribution at steady state (Vdss)", "setting": "[2]; human", "result": "9 to 11", "unit": "L/kg"}, {"measurement": "efficacy in dementia patients", "setting": "[3]; 10 mg single daily dose for 12 weeks", "result": "demonstrated efficacy"}, {"measurement": "efficacy in moderate to severe AD", "setting": "[3]; humans, 10 mg twice daily, 6-month study", "result": "efficacious"}]}]}
